In data set [1] the test system is Haemonchus contortus. Description: Haemonchus contortus larvacidal assay (larval development, LD99). Here is the method: a) Haemonchus Contortus Larvacidal Assay:
The effect of compounds on larval development was determined in the assay described by Gill et al., (1995, International Journal of Parasitology 25:463-470). Briefly, in this assay, nematode eggs were applied to the surface of an agar matrix containing the test compound and then allowed to develop through to the L3, infective stage (6 days). The wells for each dilution of every compound (from highest to lowest concentration) were inspected to determine the well number corresponding to the lowest concentration at which development was inhibited in 99% of the nematode larvae present (LD99). Because well numbers correspond to a two-fold serial dilution of each compound, a titre (dilution factor) is generated as 2n^−1, where n is the well number. By dividing the highest concentration tested by the titre an LD99 value can be obtained, representing the concentration required to inhibit development in 99% of the nematode larvae present. The compounds supplied as solid and viscous liquids were dissolved in DMSO. Twelve serial one-half dilutions in DMSO solution were prepared from the stock solution, each of which was then diluted ⅕ with water. Aliquots (10 μl) of each dilution were transferred to the bioassay plates to give a final concentration range of 0.024 to 50 μg/ml.

Data set [2] deals with Ctenocephalides felis. The note with it: 8 h; data from laboratory 2. The gist of the method: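 Adult cat fleas (3–7 days post-emergence), 15 per flask in ≥4 replicates, exposed to a dried acetone residue at 1.26 μg/cm^2 on a Coatasil-treated glass flask base. Held at 25±1° C, 75±5% humidity; mortality (immobile or unable to right) scored at 8, 24 and/or 48 h.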

The compound `Cn1ccc(-c2cc(Cl)ccc2NS(=O)(=O)C(F)(F)F)n1` registered a melting point of 196 to 197 °C.

Regarding `CC(=NNc1ccc(C(F)(F)F)cc1)c1cc(Cl)ccc1NS(=O)(=O)C(F)(F)F` [Compound 1, N-[2-[1-(4-trifluoro-methylphenyl)hydrazono]ethyl-4-chlorophenyl]-trifluoromethanesulfonamide], the “H. contortus LD99” value in data set [1] is reported as 3.8 ppm.

Turning to `CCC(=NNc1ccc(C(F)(F)F)cc1)c1cc(Cl)ccc1NS(=O)(=O)C(F)(F)F` [Compound 2], the “H. contortus LD99” value in data set [1] came to 6 ppm.

Take `CC(=NNc1cccc(Cl)c1Cl)c1cc(Cl)ccc1NS(=O)(=O)C(F)(F)F` [Compound 3]: the “H. contortus LD99” value in data set [1] is reported as 1.5 ppm.

For `CC(=NNc1ccc(Cl)cc1Cl)c1cc(Cl)ccc1NS(=O)(=O)C(F)(F)F` [Compound 4], the “H. contortus LD99” value in data set [1] came out at 0.63 ppm.

Take `CC(=NNc1ccc(Cl)c(Cl)c1)c1cc(Cl)ccc1NS(=O)(=O)C(F)(F)F` [Compound 5]: in data set [1], the “H. contortus LD99” value worked out at 3.3 ppm.

For `CC(=NNc1cc(Cl)cc(Cl)c1)c1cc(Cl)ccc1NS(=O)(=O)C(F)(F)F` [Compound 6], the “H. contortus LD99” value in data set [1] is reported as 3.5 ppm.

For `CC(=NNc1cc(Cl)ccc1Cl)c1cc(Cl)ccc1NS(=O)(=O)C(F)(F)F` [Compound 7], the “H. contortus LD99” value in data set [1] was found to be 0.94 ppm.

Take `CC(=NNc1ccc(Br)cc1)c1cc(Cl)ccc1NS(=O)(=O)C(F)(F)F` [Compound 8]: the “C. felis Mortality (%) 8 h” value in data set [2] was 12^B %. For the same compound, the “H. contortus LD99” value in data set [1] is 7.5 ppm.

For `COc1ccc(NN=C(C)c2cc(Cl)ccc2NS(=O)(=O)C(F)(F)F)cc1` [Compound 10], in data set [1], the “H. contortus LD99” value was more than 15 ppm.

As for `CC(=NNC(=O)c1ccccc1)c1cc(Cl)ccc1NS(=O)(=O)C(F)(F)F` [Compound 11], in data set [1], the “H. contortus LD99” value is recorded as more than 15 ppm.

In the case of `CCC(=NNc1cccc(Cl)c1Cl)c1cc(Cl)ccc1NS(=O)(=O)C(F)(F)F` [Compound 13, N-[2-[1-(2,3-dichlorophenyl)hydrazono]propyl-4-chlorophenyl]-trifluoromethanesulfonamide], the “H. contortus LD99” value in data set [1] was determined as 3 ppm.

As for `CCC(=NNc1ccc(Cl)c(Cl)c1)c1cc(Cl)ccc1NS(=O)(=O)C(F)(F)F` [Compound 14], the “H. contortus LD99” value in data set [1] came to 3.8 ppm.

For the compound `CCC(=NNc1ccc(Br)cc1)c1cc(Cl)ccc1NS(=O)(=O)C(F)(F)F` [Compound 15], the “H. contortus LD99” value in data set [1] worked out at 3.8 ppm.

As to `CCC(=NNc1cc(Cl)cc(Cl)c1)c1cc(Cl)ccc1NS(=O)(=O)C(F)(F)F` [Compound 16], the “H. contortus LD99” value in data set [1] is 2.8 ppm.

With `CCC(=NNc1ccc(Cl)cc1Cl)c1cc(Cl)ccc1NS(=O)(=O)C(F)(F)F` [Compound 18], in data set [2], the “C. felis Mortality (%) 8 h” value was 5^B %. Also, in data set [1], the “H. contortus LD99” value is listed as 0.47 ppm.

Regarding `CCC(=NNc1cc(Cl)ccc1Cl)c1cc(Cl)ccc1NS(=O)(=O)C(F)(F)F` [Compound 19], the “H. contortus LD99” value in data set [1] stood at 0.94 ppm.

(Values after US20070238700A1, “N-PHENYL-1,1,1-TRIFLUOROMETHANESULFONAMIDE HYDRAZONE DERIVATIVE COMPOUNDS AND THEIR USAGE IN CONTROLLING PARASITES” (priority 2006, published 2007).)
